Results published in patent US20040023884A1, “Biologically active peptides from functional domains of bactericidal/permeability-increasing protein and uses thereof” (priority 1993, published 2004).
Ends that are not written are not given here.

Assays:
[1] = 3H-heparin binding assay (affinity and capacity); details: for Heparin Capacity: heparin bound at saturation; for Kd: read-out: Heparin Affinity
Method in brief: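 Peptide fragments were bound to PVDF-membrane wells and incubated with 3H-heparin in blocking buffer for 1 h at 4 °C. After washing, bound radioactivity was quantified by liquid scintillation counting, with BSA background subtracted; rBPI23 served as positive control.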

[2] = tested on: rough mutant E. coli J5 bacteria; experiment: Radial diffusion bactericidal assay, E. coli J5; type: cell-based; details: for pmol added to well to achieve a 30 mm^2 bactericidal zone, E. coli J5: radial diffusion, PROBIT analysis, E. coli J5 (rough); for fold reduction in bactericidal activity in the radial diffusion assay: alanine variant vs unsubstituted peptide
Method in brief: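 Log-phase bacteria (3 h at 37 °C in tryptic soy broth), washed in 10 mM sodium phosphate pH 7.4, were embedded at 4×10^6 CFU/mL in underlayer agarose. BPI proteolytic fragments (5 or 10 μL) went into 3 mm wells for 3 h at 37 °C, then agarose overlay and overnight 37 °C growth. Clear zones were measured by micrometer.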

E. coli 0113 LPS = experiment: Limulus Amoebocyte Lysate (LAL) inhibition assay; type: biochemical; details: for LAL (relative difference): alanine variant relative to BPI.13
Method: BPI proteolytic fragments produced according to Example 1 were subjected to a Limulus Amoebocyte Lysate (LAL) inhibition assay to determine LPS binding properties of these fragments. Specifically, each of the fragments were mixed in Eppendorf tubes with a fixed concentration of E. coli 0113 LPS (4 ng/mL final concentration) and incubated at 37° C. for 3 hours with occasional shaking. Addition controls comprising rBPI23 at 0.05 μg/mL were also tested. Following incubation, 360 μL of Dulbecco's phosphate buffered saline (D-PBS; Grand Island Biological Co. (GIBCO), Long Island, N.Y.) were added per tube to obtain an LPS concentration of 200 pg/mL for the LAL assay. Each sample was then transferred into Immulon II strips (Dynatech, Chantilly, Va.) in volumes of 50 μl per well.
Limulus amoebocyte Lysate (Quantitative Chromogenic LAL kit, Whitaker Bioproducts, Inc., Walkersville, Md.) was added at 50 μL per well and the wells were incubated at room temperature for 25 minutes. Chromogenic substrate was then added at a volume of 100 μL per well and was well mixed. After incubation for 20 to 30 minutes at room temperature, the reaction was stopped with addition of 100 μL of 25% (v/v) acetic acid. Optical density at 405 nm was then measured in a multiplate reader (Model Vmax, […], Menlo Park, Calif.) with the results shown in FIG. 2 in terms of percent inhibition of LPS. In this Figure, the filled circle represents rBPI23; the open circle represents Asp-N fragment A3; the x represents Asp-N fragment A2, the filled square represents Asp-N fragment A4; the filled triangle represents Asp-N fragment A1A2; the open square represents Asp-N fragment A6a; the small open triangle represents CNBr fragment C3; and the small filled square represents CNBr fragment C1/C5.

[3] = tested on: E. coli 0111:B4 (smooth) bacteria; experiment: Radial diffusion bactericidal assay, E. coli 0111:B4; type: cell-based; details: radial diffusion; PROBIT analysis; E. coli O111:B4 (smooth)
Candida albicans = type: cell-based; details: for MIC (x Fold change in fungicidal activity): alanine variant relative to BPI.13
C. albicans = experiment: Radial diffusion fungicidal assay, Candida albicans; type: cell-based; details: radial diffusion

Row | Sequence | Heparin Capacity [1] [ng] | Kd [1] [nM] | pmol added to well to achieve a 30 mm^2 bactericidal zone, E. coli J5 [2] | LAL / LPS inhibition activity (in words) (E. coli 0113 LPS) | pmol added to well to achieve a 30 mm^2 bactericidal zone, E. coli O111:B4 [3] | MIC C. alb (Candida albicans) [µg/mL] | MIC (x Fold change in fungicidal activity) (Candida albicans) | C. albicans: pmol required for 30 mm^2 zone (C. albicans) [pmol] | increase of Kd of heparin binding and heparin capacity ([1]; vs unsubstituted peptide) [%] | LAL (relative difference) (E. coli 0113 LPS) | fold reduction in bactericidal activity in the radial diffusion assay [2] | HEPCAP (x Fold change in activity) ([1]; heparin binding capacity, relative to BPI.13) | decline of Kd of heparin binding ([1]; vs unsubstituted peptide) [fold]
1 | ASKVGWLIQLFHKK [BPI.31] | 205.1 | 252 | 937.60 pmol | moderate decrease in LPS-binding activity | b (no detectable activity up to 5 μg/well) | 6.25 | = | 426.21 | – | – | – | – | –
2 | KAKVGWLIQLFHKK [BPI.32] | 217.1 | 340 | 613.80 pmol | moderate decrease in LPS-binding activity | b (no detectable activity up to 5 μg/well) | 3.13 | – | 293.62 | – | – | – | – | –
3 | KSAVGWLIQLFHKK [BPI.33] | 230.7 | 492 | 575.40 pmol | moderate decrease in LPS-binding activity | b (no detectable activity up to 5 μg/well) | 6.25 | = | 603.44 | – | – | – | – | –
4 | KSKAGWLIQLFHKK [BPI.34] | 205.1 | 518 | 916.20 pmol | moderate decrease in LPS-binding activity | b (no detectable activity up to 5 μg/well) | 6.25 | = | 319.13 | – | – | – | – | –
5 | KSKVAWLIQLFHKK [BPI.35] | 406.0 | 1080 | 263.00 pmol | – | b (no detectable activity up to 5 μg/well) | 3.13 | – | 441.79 | 10 | = (no difference in the LAL assay) | – | – | –
6 | KSKVGALIQLFHKK [BPI.36] | 80.2 | 379 | 1,652.00 pmol | large decrease in LPS-binding activity | b (no detectable activity up to 5 μg/well) | 6.25 | = | 196.96 | – | – | approximately 5 fold | – | –
7 | KSKVGWAIQLFHKK [BPI.37] | 136.7 | 189 | 1,284.00 pmol | – | b (no detectable activity up to 5 μg/well) | 6.25 | = | 252.71 | – | = (no difference in the LAL assay) | – | – | –
8 | KSKVGWLAQLFHKK [BPI.38] | 194.3 | 579 | 1,698.20 pmol | – | b (no detectable activity up to 5 μg/well) | 6.25 | = | 390.65 | – | = (no difference in the LAL assay) | – | – | –
9 | KSKVGWLIQAFHKK [BPI.40] | 160.5 | 547 | 1,760.10 pmol | large decrease in LPS-binding activity | b (no detectable activity up to 5 μg/well) | 3.13 | – | 253.17 | – | = (no difference in the LAL assay) | approximately 5 fold | – | –
10 | KSKVGWLIQLAHKK [BPI.41] | 119.1 | 469 | 2,465.40 pmol | – | b (no detectable activity up to 5 μg/well) | 3.13 | – | 733.70 | – | = (no difference in the LAL assay) | – | – | –
11 | KSKVGWLIQLFAKK [BPI.42] | 369.1 | 820 | 264.80 pmol | – | 3,731.70 pmol | 6.25 | = | 548.49 | – | = (no difference in the LAL assay) | – | =1.0 x Fold | 1.2
12 | KSKVGWLIQLFHAK [BPI.43] | 283.9 | 492 | 729.40 pmol | – | 4,872.30 pmol | 12.50 | – | 784.78 | – | = (no difference in the LAL assay) | – | – | –
